Measured values taken from PMC7259601 (PLoS ONE, 2020).
pEC50: −log10 of the molar value.

Tested on: THP-1 cells
Assay: FACS based CD11B induction assay in THP-1
Assay type: cell-based
Settings: Homo sapiens; THP-1, 96 hr; read-out: EC50 induction of differentiation marker CD11B
Description: Human leukemic THP1 (ACC-16) cells ([…]) were obtained from DMSZ and maintained in RPMI 1640 medium (Cat# R0883; Sigma Aldrich) supplemented with 10 % heat inactivated fetal bovine serum (FBS; Cat# F9665; Sigma-Aldrich) and 2 mM Glutamine (Cat# X0550 Biowest).
THP-1 cells are acute leukemia cells with blast phenotype that can be induced to differentiate into a monocyte/macrophage phenotype by cell penetrant KDM1A inhibitors. Differentiation can be followed by measurement of induction of differentiation surface markers like CD11B. Cells were treated for 96 hr with KDM1A inhibitors. Fluorescent assisted cell sorting (FACS) analysis of CD11B expression was performed on 1.5 x 10^5 THP-1 cells (obtained from German Collection of microorganism and Cell Cultures; ACC-16) using a phycoerythrin-conjugated human CD11B-specific mouse monoclonal antibody (eBiosciences, #12-0118) at dilution 1:5 on a cytomics FC500 (Beckman Coulter) with FlowJo software. The mouse IgG1 K isotype (eBiosciences, #12-4714) was used as a control antibody. Concentration-response curves were determined out by assaying inhibitors at concentrations ranging between 0.32 and 200 nM.

Nc1nnc(CN[C@@H]2C[C@H]2c2ccc(OCc3ccccc3)cc2)o1 [ORY-2001, vafidemstat]
pEC50: 7.68
